What all share (experiment): Preemergent activity
Common to all, as to format: in vivo

In assay [1] the test system is Johnson Grass. As to conditions: Sorghum halepense, pre-emergence, read-out: Preemergence Control. How it is done: (§1) In a representative operation, 2-[4-(2-fluoro-4-trifluoromethylphenoxy)phenoxy]propionic acid methyl ester, to be utilized in a series of tests, is dissolved in acetone to one half of the final volume (twice the final concentration) to be used and the acetone solution in each case is admixed with an equal volume of water containing 0.1 percent by weight of Tween-20 surface active material (Tween-20 is a trademark of Atlas Chemical Company). The composition, generally in the nature of an emulsion, was employed to treat separate respective seed beds of sandy loam soil of good nutrient content wherein each seed bed contained separate groups of good viable seeds, each group being of one of a known plant species. The various beds were positioned side by side and exposed to substantially identical conditions of temperature and light. Each bed was maintained so as to prevent any interaction with the test compound in different seed beds. Each seed bed was treated with the composition as a spray employing conventional spraying equipment to deposit a predetermined amount of the compound uniformly throughout the surface of the bed. Another seed bed was treated only with the acetone-Tween-20 water mixture with no chemical added to serve as a control.

Assay [2] relates to Wild Oats. The note with it: Avena fatua, pre-emergence, read-out: Preemergence Control. The protocol: as §1
Assay [3] deals with Wheat. The note with it: Triticum aestivum, pre-emergence, read-out: Preemergence Control. How it is done:
as §1

The subject of assay [4] is Yellow Foxtail. As to conditions: Setaria, pre-emergence, read-out: Preemergence Control. The protocol:
as §1

Assay [5] has as its system Barnyard Grass. As to conditions: Echinochloa crus-galli, pre-emergence, read-out: Preemergence Control. How it is done:
as §1

With `C#CCOC(=O)C(C)Oc1ccc(Oc2ccc(Br)cc2F)cc1` (stereo not drawn) [OCH2CCH], the pest or weed control at 70 g/ha in assay [1] (0.07 kgs/hectare), in assay [2] (0.07 kgs/hectare), in assay [4] (0.07 kgs/hectare) and in assay [5] (0.07 kgs/hectare) was 0% throughout. The pest or weed control at 140 g/ha is 20% in assay [1] (0.14 kgs/hectare), 60% in assay [4] (0.14 kgs/hectare) and 20% in assay [5] (0.14 kgs/hectare). The pest or weed control at 280 g/ha in assay [1] (0.28 kgs/hectare) was 50%; in assay [2] (0.28 kgs/hectare), 50%; in assay [4] (0.28 kgs/hectare), 95%; in assay [5] (0.28 kgs/hectare), 100%. Also, the pest or weed control at 560 g/ha in assay [1] (0.56 kgs/hectare) came to 100%; in assay [2] (0.56 kgs/hectare), 50%; in assay [4] (0.56 kgs/hectare), 100%; in assay [5] (0.56 kgs/hectare), 100%. For the same molecule, the pest or weed control at 1120 g/ha in assay [1] (1.12 kgs/hectare) is 100%; in assay [2] (1.12 kgs/hectare), 70%; in assay [4] (1.12 kgs/hectare), 100%; in assay [5] (1.12 kgs/hectare), 100%. For the same molecule, the plant injury at 70 g/ha in assay [3] (0.07 kgs/hectare) is 0%. The plant injury at 140 g/ha in assay [3] (0.14 kgs/hectare) was determined as 0%. Moreover, the plant injury at 280 g/ha in assay [3] (0.28 kgs/hectare) is 0%. The plant injury at 560 g/ha in assay [3] (0.56 kgs/hectare) amounted to 0%. Moreover, the plant injury at 1120 g/ha in assay [3] (1.12 kgs/hectare) came out at 0%.
